Assay results taken from patent US9199946B2, “Pyrimidinone carboxamide inhibitors of endothelial lipase” (BRISTOL-MYERS SQUIBB COMPANY, priority 2012, dated 2015).
Where two headings read alike, the source gives them in different places.

Molecular target: T1, Endothelial lipase (EL) (Homo sapiens, UniProt Q9Y5X9)
T1 construct: HT-1080 cells, which were transformed by RAGE technology (Athersys) to overexpress endogenous EL; endogenous in cells; conditioned medium used as the enzyme source
T1 sequence (Q9Y5X9 21-500): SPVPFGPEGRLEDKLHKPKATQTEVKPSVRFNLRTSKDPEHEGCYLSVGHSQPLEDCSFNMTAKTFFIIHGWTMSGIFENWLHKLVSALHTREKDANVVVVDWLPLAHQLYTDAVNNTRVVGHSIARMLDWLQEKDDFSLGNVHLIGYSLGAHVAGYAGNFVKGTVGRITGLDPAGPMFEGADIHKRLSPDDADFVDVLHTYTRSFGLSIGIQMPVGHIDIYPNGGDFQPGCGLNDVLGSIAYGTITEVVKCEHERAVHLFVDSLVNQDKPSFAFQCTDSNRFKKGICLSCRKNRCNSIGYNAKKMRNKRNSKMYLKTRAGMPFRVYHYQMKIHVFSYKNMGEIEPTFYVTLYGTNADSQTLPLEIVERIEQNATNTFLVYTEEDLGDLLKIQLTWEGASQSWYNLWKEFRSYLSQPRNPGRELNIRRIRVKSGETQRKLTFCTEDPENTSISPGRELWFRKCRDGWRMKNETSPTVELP
Test: Endothelial lipase (EL) enzymatic assay with fluorescent substrate A10070 in DMPG vesicles
Type: biochemical
How it was run: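 EL activity was followed as a fluorescence rate (488/530 nm, reads every 20 s for 10 min, linear slope) on A10070 doped at 0.05 mole fraction into sonicated DMPG vesicles. Compound was first incubated 20 min at 37 °C, pH 8.0 HEPES/CaCl2 buffer, with conditioned media from EL-overexpressing HT-1080 cells.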

[1] = conditioned media from HT-1080 cells overexpressing endogenous EL, 20 min preincubation at 37° C., read-out: EL IC50
[2] = range observed in the EL assay, read-out: EL IC50 values

| Compound | IC50 [1] | IC50 [2] |
| --- | --- | --- |
| O=C(N[C@H]1CC[C@@H](c2ccccc2)CC1)c1[nH]c(=O)[nH]c(=O)c1NCCc1ccc(Cl)cc1 [Example 218, 5-(4-chlorophenethylamino)-2,6-dioxo-N-(cis-4-phenylcyclohexyl)-1,2,3,6-tetrahydropyrimidine-4-carboxamide] | 0.296 µM | ≤ 10 µM |
| Nc1c(C(=O)N[C@H]2CC[C@@H](c3ccc(-c4cccc(CO)c4)cc3)C2)[nH]c(=O)[nH]c1=O [Example 178, 5-amino-N-((1S,3R)-3-(3′-(hydroxymethyl)biphenyl-4-yl)cyclopentyl)-2,6-dioxo-1,2,3,6-tetrahydropyrimidine-4-carboxamide] |  | ≤ 10 µM |
| O=C(N[C@@H]1CCCc2c(OCC3CCCC3)cccc21)c1[nH]c(=O)[nH]c(=O)c1O [Example 291, (R)-N-(5-(cyclopentylmethoxy)-1,2,3,4-tetrahydronaphthalen-1-yl)-5-hydroxy-2,6-dioxo-1,2,3,6-tetrahydropyrimidine-4-carboxamide] |  | ≤ 10 µM |
| CC(C)(C)C1CCC(NC(=O)c2[nH]c(=O)[nH]c(=O)c2N)CC1 (centres unmarked) [Example 44, 5-amino-N-(4-tert-butylcyclohexyl)-2,6-dioxo-1,2,3,6-tetrahydropyrimidine-4-carboxamide] |  | ≤ 10 µM |
| Nc1c(C(=O)N[C@@H]2CCCc3cc(Oc4ccccc4)ccc32)[nH]c(=O)[nH]c1=O [Example 85, (R)-5-amino-2,6-dioxo-N-(6-phenoxy-1,2,3,4-tetrahydronaphthalen-1-yl)-1,2,3,6-tetrahydropyrimidine-4-carboxamide] |  | ≤ 10 µM |
| O=C(N[C@@H]1CCc2cc(O)ccc21)c1[nH]c(=O)[nH]c(=O)c1O [Example 262, (R)-5-hydroxy-N-(5-hydroxy-2,3-dihydro-1H-inden-1-yl)-2,6-dioxo-1,2,3,6-tetrahydropyrimidine-4-carboxamide] |  | ≤ 10 µM |
| O=C(N[C@@H]1CC[C@@H](C(=O)N[C@H]2CC[C@@H](c3ccccc3)CC2)C1)c1[nH]c(=O)[nH]c(=O)c1O [Example 297, 5-hydroxy-2,6-dioxo-N-((1R,3R)-3-((1s,4S)-4-phenylcyclohexylcarbamoyl)cyclopentyl)-1,2,3,6-tetrahydropyrimidine-4-carboxamide] |  | ≤ 10 µM |
| CC(C)(C)COc1ccc(C2CCC(NC(=O)c3[nH]c(=O)[nH]c(=O)c3N)C2)cc1 (centres unmarked) [Example 143, 5-amino-N-(3-(4-(neopentyloxy)phenyl)cyclopentyl)-2,6-dioxo-1,2,3,6-tetrahydropyrimidine-4-carboxamide] |  | ≤ 10 µM |
| CC(CO)Nc1c(C(=O)N[C@H]2CC[C@@H](c3ccccc3)CC2)[nH]c(=O)[nH]c1=O (stereo partly drawn) [Example 235, 5-(1-hydroxypropan-2-ylamino)-2,6-dioxo-N-(cis-4-phenylcyclohexyl)-1,2,3,6-tetrahydropyrimidine-4-carboxamide] |  | ≤ 10 µM |
| COc1ccc2c(c1)C(NC(=O)c1[nH]c(=O)[nH]c(=O)c1N)CCC2 (single isomer, unassigned; enantiomer b) [Example 200, 5-amino-N-(7-methoxy-1,2,3,4-tetrahydronaphthalen-1-yl)-2,6-dioxo 1,2,3,6-tetrahydropyrimidine-4-carboxamide (Enantiomer B)] |  | ≤ 10 µM |
| Nc1c(C(=O)NC2CCCC(c3ccccc3)C2)[nH]c(=O)[nH]c1=O (single isomer, unassigned) [Example 100, 5-amino-2,6-dioxo-N-(3-phenylcyclohexyl)-1,2,3,6-tetrahydropyrimidine-4-carboxamide] |  | ≤ 10 µM |
| Nc1c(C(=O)N[C@H]2CCN(c3ccccc3)C2)[nH]c(=O)[nH]c1=O [Example 192, (S)-5-amino-2,6-dioxo-N-(1-phenylpyrrolidin-3-yl)-1,2,3,6-tetrahydropyrimidine-4-carboxamide] |  | ≤ 10 µM |
| Cc1c(-c2ccc([C@H]3CC[C@@H](NC(=O)c4[nH]c(=O)[nH]c(=O)c4N)C3)cc2)cnn1-c1ccccc1 [Example 165, 5-amino-N-((1R,3S)-3-(4-(5-methyl-1-phenyl-1H-pyrazol-4-yl)phenyl)cyclopentyl)-2,6-dioxo-1,2,3,6-tetrahydropyrimidine-4-carboxamide] |  | ≤ 10 µM |
| Nc1c(C(=O)N[C@H]2CC[C@H](C(=O)Nc3ccccc3)C2)[nH]c(=O)[nH]c1=O [Example 129, 5-amino-2,6-dioxo-N-((1S,3S)-3-(phenylcarbamoyl)cyclopentyl)-1,2,3,6-tetrahydropyrimidine-4-carboxamide] |  | ≤ 10 µM |
| COC(=O)C[C@H]1C[C@H](NC(=O)c2[nH]c(=O)[nH]c(=O)c2N)c2ccccc2[C@@H]1c1ccccc1 [Example 21, methyl 2-((1S,2R,4S)-4-(5-amino-2,6-dioxo-1,2,3,6-tetrahydropyrimidine-4-carboxamido)-1-phenyl-1,2,3,4-tetrahydronaphthalen-2-yl)acetate] |  | ≤ 10 µM |
| Nc1c(C(=O)NC2CC=C(c3ccc(F)c(F)c3)CC2)[nH]c(=O)[nH]c1=O (centres unmarked) [Example 202, 5-Amino-N-(4-(3,4-difluorophenyl)cyclohex-3-enyl)-2,6-dioxo-1,2,3,6-tetrahydropyrimidine-4-carboxamide] | 1.91 µM | ≤ 10 µM |
| O=C(N[C@H]1CCN(c2ccccc2)C1)c1[nH]c(=O)[nH]c(=O)c1O [Example 274, (S)-5-hydroxy-2,6-dioxo-N-(1-phenylpyrrolidin-3-yl)-1,2,3,6-tetrahydropyrimidine-4-carboxamide] |  | ≤ 10 µM |
| O=C(N[C@H]1CC[C@@H](c2ccccc2)CC1)c1[nH]c(=O)n(CCCc2ccccc2)c(=O)c1O [Example 270, 5-Hydroxy-2,6-dioxo-N-(cis-4-phenylcyclohexyl)-1-(3-phenylpropyl)-1,2,3,6-tetrahydropyrimidine-4-carboxamide] |  | ≤ 10 µM |
| Nc1c(C(=O)NC2CCCN(c3ncccc3Cl)C2)[nH]c(=O)[nH]c1=O (centres unmarked) [Example 183, 5-amino-N-(1-(3-chloropyridin-2-yl)piperidin-3-yl)-2,6-dioxo-1,2,3,6-tetrahydropyrimidine-4-carboxamide] |  | ≤ 10 µM |
| Nc1c(C(=O)N[C@H]2CCc3ccc(Br)cc32)[nH]c(=O)[nH]c1=O [Example 55, (S)-5-amino-N-(6-bromo-2,3-dihydro-1H-inden-1-yl)-2,6-dioxo-1,2,3,6-tetrahydropyrimidine-4-carboxamide] |  | ≤ 10 µM |
| Nc1c(C(=O)N[C@@H]2CCCc3cc(OCC(F)(F)F)ccc32)[nH]c(=O)[nH]c1=O [Example 33, (R)-5-amino-2,6-dioxo-N-(6-(2,2,2-trifluoroethoxy)-1,2,3,4-tetrahydronaphthalen-1-yl)-1,2,3,6-tetrahydropyrimidine-4-carboxamide] |  | ≤ 10 µM |
| Nc1c(C(=O)N[C@@H]2CCc3cc(Oc4ccccc4)ccc32)[nH]c(=O)[nH]c1=O [Example 89, (R)-5-amino-2,6-dioxo-N-(5-phenoxy-2,3-dihydro-1H-inden-1-yl)-1,2,3,6-tetrahydropyrimidine-4-carboxamide] |  | ≤ 10 µM |
| Nc1c(C(=O)N[C@@H]2CCCc3c(OCc4ccccc4F)cccc32)[nH]c(=O)[nH]c1=O [Example 96, (R)-5-amino-N-(5-(2-fluorobenzyloxy)-1,2,3,4-tetrahydronaphthalen-1-yl)-2,6-dioxo-1,2,3,6-tetrahydropyrimidine-4-carboxamide] |  | ≤ 10 µM |
| Nc1c(C(=O)N[C@H]2CCc3ccc(-c4ccccc4)cc32)[nH]c(=O)[nH]c1=O [Example 139, (S)-5-amino-2,6-dioxo-N-(6-phenyl-2,3-dihydro-1H-inden-1-yl)-1,2,3,6-tetrahydropyrimidine-4-carboxamide] | 0.028 µM | ≤ 10 µM |
| Nc1c(C(=O)N[C@@H]2CCc3c(Cl)cc(Cl)cc32)[nH]c(=O)[nH]c1=O [Example 5, (R)-5-amino-N-(4,6-dichloro-2,3-dihydro-1H-inden-1-yl)-2,6-dioxo-1,2,3,6-tetrahydropyrimidine-4-carboxamide] |  | ≤ 10 µM |
| O=C(N[C@H]1CC[C@@H](c2ccccc2)CC1)c1[nH]c(=O)[nH]c(=O)c1NCCCN1CCOCC1 [Example 219, 5-(3-morpholinopropylamino)-2,6-dioxo-N-(cis-4-phenylcyclohexyl)-1,2,3,6-tetrahydropyrimidine-4-carboxamide] |  | ≤ 10 µM |
| Nc1c(C(=O)NC2CCOc3ccccc32)[nH]c(=O)[nH]c1=O (single isomer, unassigned; enantiomer b) [Example 197, 5-amino-N-(chroman-4-yl)-2,6-dioxo-1,2,3,6-tetrahydropyrimidine-4-carboxamide (Enantiomer B)] |  | ≤ 10 µM |
| Nc1c(C(=O)N[C@@H]2CCCc3cc(NC(=O)c4ccccc4)ccc32)[nH]c(=O)[nH]c1=O [Example 105, (R)-5-amino-N-(6-benzamido-1,2,3,4-tetrahydronaphthalen-1-yl)-2,6-dioxo-1,2,3,6-tetrahydropyrimidine-4-carboxamide] |  | ≤ 10 µM |
| O=C(N[C@H]1CC[C@@H](c2ccccc2)CC1)c1[nH]c(=O)[nH]c(=O)c1NCc1cc(F)cc(C(F)(F)F)c1 [Example 236, 5-(3-fluoro-5-(trifluoromethyl)benzylamino)-2,6-dioxo-N-((1s,4s)-4-phenylcyclohexyl)-1,2,3,6-tetrahydropyrimidine-4-carboxamide] |  | ≤ 10 µM |
